Where “and” joins values, the source holds several entries; their conditions need not be identical. Identical values can stand only once.

The record followed here is US8702927B2, “Multiple-electrode and metal-coated probes” (The Trustees Of The University Of Pennsylvania, priority 2009, dated 2014).

Test [1] concerns GABAA receptor. The experiment in a line: CNP-recorded membrane potential of HT-22 cells during pharmacological stimulation (GABA, bicuculline), current-clamp. Type of test: cell-based, mouse.
Protocol: Y-aminobutyric acid (GABA), a principal inhibitory neurotransmitter in the mammalian central nervous system which acts as an agonist for the membrane-bound GABAA receptor, was administered. When GABA binds to the GABAA receptor, the cell hyperpolarizes as a result of C1-ion influx due to the opening of the ligand-gated C1-ion channel. However, the hyperpolarization can be blocked by perfusing cells with bicuculline (BIC), a competitive antagonist for the GABAA receptor which binds to the GABAA receptor and prevents it from opening even in the presence of GABA.
FIG. 10A illustrates how an HT-22 cell responded when GABA was added to the cell bath (12 mM GABA in bath, arrow).
FIG. 10B represents the opposing membrane responses to such stimuli over time.
In test [2] the test system is HT-22 cells. The experiment in a line: CNP-recorded membrane potential of HT-22 cells during ionic (K+) enrichment, current-clamp. Type of test: cell-based, mouse. The note with it: for depolarization of membrane potential: KCl added to cell bath; for time for cell to return to its RMP: after KCl. The text has this:
Because the cell membrane is highly permeable to potassium ions (K^+), an increase or decrease in extracellular K+ concentration will, respectively, cause a resting cell to depolarize (membrane potential becoming more positive) or hyperpolarize (membrane potential becoming more negative). Utilizing CNPs, variations in membrane potential were monitored over tens of minutes. FIG. 8A is a recording of membrane potential from an HT-22 cell during perfusion intervals with normal HBSS and K+-enriched HBSS (additional 5 mM K^+). […] After approximately 2 min at higher extracellular K^+, the cell was perfused with normal HBSS and the cell slowly returned to its RMP.
Next, a CNP was used to measure changes in membrane potential during repetitive extracellular administration of KCl [FIG. 8B]. After penetrating the cell, as indicated by the arrow in FIG. 8B, the CNP measured a stable RMP under normal HBSS perfusion (Emp=−68 mV). […] Under constant perfusion in normal HBSS, the membrane potential returned to its original value after […]. The results were reproducible with high fidelity.
FIG. 8C is a representation of potential variations as a function of time during the administration of HBSS and the varied K+-enrichment of HBSS (additional 5 and 15 mM K^+). […] As normal HBSS perfusion brought the bath back to its initial K+ concentration, the cell returned to its RMP in ˜90 seconds.
The mouse hippocampal cell line HT-22 was kindly provided by Dr. David Schubert (The Salk Institute, San Diego, Calif.). Cells were grown in Dulbecco's Modified Eagle Medium (DMEM, high glucose) supplemented with 10% fetal bovine serum (FBS) and 1% antibiotics. The cells were plated on 12 mm cover slips 48 hrs prior to the electrophysiology measurements. The cells on the cover slips were incubated in HBSS (with calcium and magnesium) at room temperature for 10 min prior to measurements. The cover slips were subsequently placed in an open diamond perfision bath (Warner Instruments Corp., RC-22C) positioned on an upright microscope (Nikon eclipse E600FN, 40× water-immersion lens, Burleigh Gibraltar fixed-stage platform) located atop a vibration-isolation table. Cells were routinely perfised with HBSS at a flow rate of 1.0 mllmin.
Membrane potential measurements were recorded with an Axon AxoClamp-2A amplifier equipped with a headstage for high resistance electrodes (Axon HS2-XO.OlMU) and Digidata 1322A digitizer (Axon Instruments/Molecular Devices, Sunnyvale, Calif.). Experimental protocols were controlled and data acquired by a personal computer using the Clampex 8.2 software (Axon Instruments). CNPs were inserted into a standard electrode holder until the metal wire of the holder came in contact with the inner carbon film of the CNP. A slight positive pressure was applied through the holder's perfixion port to keep external solution from filling the hollow CNP by capillarity. A micromanipulator (Narishige MHW-3) was used to manipulate and position the CNP electrodes during the electrophysiology measurements. All the electrical measurements were carried out versus an AgIAgCl reference electrode submerged in HBSS in discontinuous current clamp @CC) mode, at zero current, with no capacitance compensation. The CNP potential was nulled (+I-2 mV) with the amplifier offset potential during immersion in HBSS before all electrical measurements. Recorded electrical measurements were not adjusted to compensate for differences in extracellular and intracellular junction potentials.

Consider `NCCCC(=O)O` [GABA, Y-aminobutyric acid], for which, in test [1] (12 mM GABA in bath, normal HBSS perfusion, FIG. 10A, FIG. 10B), the “hyperpolarization from the RMP” value was 10 mV and 12 mV. The “time for cell to return to its RMP” value in test [1] (after 12 mM GABA, constant HBSS perfusion) is 30 s and 60 s.
Turning to `[Cl-].[K+]` [KCl, Potassium chloride], the “depolarization of membrane potential” value in test [2] (additional 5 mM K+, RMP -57 mV, FIG. 8C) is 10 mV; in test [2] (additional 15 mM K+, RMP -57 mV, FIG. 8C, FIG. 10B), 30 mV and 25 mV; in test [2] (additional 25 mM K+, RMP -68 mV, FIG. 8B) it was 40 mV. Also, the “time for cell to return to its RMP” value was around 90 s in test [2] (additional 5 mM K+, normal HBSS perfusion); ~90 s and 60 s in test [2] (additional 15 mM K+, HBSS perfusion).
